Results from patent US5874442A, “Tricyclic amides useful for inhibition of G-protein function and for treatment of proliferative disease” (Schering-Plough Corporation, priority 1996, dated 1999).
pIC50: −log10 of the molar value. Where two headings read alike, the source gives them in different places. Each block holds one compound with its values, some of them ahead of it.

What was measured:
[1] = system: DLD-1 (human colon carcinoma cells); assay: In vivo anti-tumor studies, subcutaneous DLD-1 tumors in athymic nu/nu mice; parameters: species or system athymic nu/nu female mice; conditions: Mus musculus, DLD-1, po, read-out: Average % Tumor Inhibition
Procedure: Tumor bearing animals are selected and randomized when the tumors are established. Animals are treated with vehicle (β-cyclodextrin for i.p. or corn oil for p.o.) only or with a compound of the present invention in vehicle four times a day (QID) for 7 days per week for 4 weeks. The percent inhibition of tumor growth relative to vehicle controls is determined by tumor measurements.

[2] = system: Ras-CVLS processing in COS cells; assay: Cell-based COS cell assay: inhibition of Ras processing (Ras-CVLS); parameters: species or system monkey
Description: Transient expression of val^12 -Ha-Ras-CVLS and […] -Ha-Ras-CVLL in COS monkey kidney cells: Effect of farnesyl protein transferase inhibitors on Ras processing and on disordered cell growth induced by transforming Ras.
COS monkey kidney cells were transfected by electroporation with the plasmid pSV-SPORT (Gibco/BRL) containing a cDNA insert encoding either Ras-CVLS or Ras-CVLL, leading to transient overexpression of a Ras substrate for either farnesyl protein transferase or geranylgeranyl protein transferase I, respectively (see above).
Following electroporation, cells were plated into 6-well tissue culture dishes containing 1.5 ml of Dulbecco's-modified Eagle's media (GIBCO, Inc.) supplemented with 10% fetal calf serum and the appropriate farnesyl protein transferase inhibitors. After 24 hours, media was removed and fresh media containing the appropriate drugs was re-added.
48 hours after electroporation cells were examined under the microscope to monitor disordered cell growth induced by transforming Ras. Cells expressing transforming Ras become more rounded and refractile and overgrow the monolayer, reminiscent of the transformed phenotype. Cells were then photographed, washed twice with 1 ml of cold phosphate-buffered saline (PBS) and removed from the dish by scraping with a rubber policeman into 1 ml of a buffer containing 25 mM Tris, pH 8.0; 1 mM ethylenediamine tetraacetic acid; 1 mM phenylmethylsulfonyl fluoride; […]; and 0.1 mM pepstatin. Cells were lysed by homogenization and cell debris was removed by centrifugation at 2000× g for 10 min.
Cellular protein was precipitated by addition of ice-cold trichloroacetic acid and redissolved in […] of SDS-electrophoresis sample buffer. […] Proteins resolved on the gels were electroblotted onto nitrocellulose membranes for immunodetection.
After washing, membranes were incubated for one hour at room temperature with a 1:5000 dilution of secondary antibody, rabbit anti-rat lgG conjugated to horseradish peroxidase, in PBS containing 1% fetal calf serum. The presence of processed and unprocessed Ras-CVLS or Ras-CVLL was detected using a colorimetric peroxidase reagent (4-chloro-1-naphthol) as described by the manufacturer (Bio-Rad).

[3] = system: Normal human HEPM fibroblasts; assay: Cell mat assay, normal cells (cell mat); type: cell-based; conditions: Mat assay, 14 d, normal cells, read-out: Normal IC50
Procedure: (§1) Compound-induced colony inhibition was assayed by addition of serial dilutions of compound directly to the growth medium 24 h after tumor cell planting, and incubating cells for an additional 14 d to allow colony formation. Assays were terminated by rinsing monolayers twice with phosphate-buffered saline (PBS), fixing the monolayers with a 1% glutaraldehyde solution in PBS, then visualizing tumor cells by staining with X-Gal (Price, J., et al., Lineage analysis in the vertebrate nervous system by retrovirus-mediated gene transfer, Proc. Natl. Acad. Sci.84, 156-160(1987)). […] Both IC50 values were obtained by determining the density of tumor cells and mat cells by visual inspection and enumeration of cells per colony and the number of colonies under the microscope.

[4] = system: T24-BAG4 human bladder carcinoma cells expressing an activated H-ras gene; assay: Cell mat assay, T24-BAG4 tumor cells; type: cell-based; conditions: Mat assay, 14 d, read-out: Tumor (T-24) IC50
Procedure: as §1

[5] = system: SW620-BAG human colon carcinoma cells expressing an activated K-ras gene; assay: Cell mat assay, SW620-BAG tumor cells; type: cell-based; conditions: Mat assay, 14 d, read-out: Tumor (SW620) IC50
Procedure: as §1
(§2) Additional assays were carried out by following essentially the same procedure as described above, but with substitution of alternative indicator tumor cell lines in place of the T24-BAG cells. The assays were conducted using either DLD-1-BAG human colon carcinoma cells expressing as activated K-ras gene or SW620-BAG human colon carcinoma cells expressing an activated K-ras gene.

[6] = system: DLD-1-BAG human colon carcinoma cells; assay: Cell mat assay, DLD-1-BAG tumor cells; type: cell-based; conditions: Mat assay, 14 d, read-out: Tumor (DLD-1) IC50
Procedure: as §1, §2

[7] = target: T1, farnesyl protein transferase (FPT) (Rattus norvegicus, UniProt Q02293+Q04631); assay: In vitro enzyme assay: inhibition of farnesyl protein transferase (FPT), [3H]farnesyl transfer to Ras-CVLS; type: biochemical
T1 construct: were partially purified from rat brain by ammonium sulfate fractionation; from tissue; host or cells: rat brain (ammonium sulfate fractionation, Q-Sepharose)
Procedure: 1. In vitro enzyme assays:
Inhibition of farnesyl protein transferase and geranylgeranyl protein transferase.
Human farnesyl protein transferase was also expressed in E. coli, using cDNA clones encoding both the a and b subunits. […] Human farnesyl protein transferase was partially-purified from the soluble protein fraction of E. coli as described above. […] Two forms of val^12 -Ha-Ras protein were prepared as substrates for these enzymes, differing in their carboxy terminal sequence. One form terminated in cysteine-valine-leucine-serine (Ras-CVLS) the other in cystein-valine-leucine-leucine (Ras-CVLL). Ras-CVLS is a substrate for the farnesyl protein transferase while Ras-CVLL is a substrate for geranylgeranyl protein transferase I. The cDNAs encoding these proteins were constructed so that the proteins contain an amino-terminal extension of 6 histidine residues. Both proteins were expressed in Escherichia coli and purified using metal chelate affinity chromatography. The radiolabelled isoprenyl pyrophosphate substrates, [^3 H]farnesyl pyrophosphate and [^3 H] geranylgeranyl pyrophosphate, were purchased from DuPont/New England Nuclear.
The reaction was allowed to proceed for 30 minutes at room temperature and then stopped with 0.5 ml of 4% sodium dodecyl sulfate (SDS) followed by 0.5 ml of cold 30% TCA. Samples were allowed to sit on ice for 45 minutes and precipitated Ras protein was then collected on GF/C filter paper mats using a Brandel cell harvester. […] Percent inhibition was calculated relative to the DMSO vehicle control.

[8] = Table 3, COS cells, read-out: Inhibition of Ras Processing IC50
[9] = […], Experiment No. 1, 50 mg/kg p.o., QID, 7 days per week for 4 weeks
[10] = […], Experiment No. 2, 10 mg/kg p.o., QID, 7 days per week for 4 weeks

Structure (SMILES): O=C(Cc1cc[n+]([O-])cc1)N1CCC(=C2c3ncc(Br)cc3CCc3cc(Cl)cc(Br)c32)CC1 [Example 7A]
inhibition in vivo at 10 mg/kg ([1]; Experiment No. 2, 10 mg/kg p.o., QID, 7 days per week for 4 weeks): 33.7%
pIC50 [2, 8]: < 6.00

pIC50 ([4]; Homo sapiens, 336 h): > 5.80
Structure (SMILES): O=C(Cc1cc[n+]([O-])cc1)N1CCC(=C2c3ncc(Br)cc3CCc3cc(Cl)cc(Br)c32)CC1 [Example 7B]
pIC50 [3]: < 4.60

pIC50 ([5]; Homo sapiens, SW-620, 336 h): 5.51
pIC50 ([6]; Homo sapiens, DLD-1, 336 h): > 5.80
pIC50 ([4]; Homo sapiens, 336 h): > 5.80
Structure (SMILES): NC(=O)N1CCC(CC(=O)N2CCC(=C3c4ncc(Br)cc4CCc4cc(Cl)cc(Br)c43)CC2)CC1 [Example 8A]
pIC50 ([3]; Homo sapiens, Fibroblast, 336 h): < 4.60
pIC50 [2, 8]: < 6.00

pIC50 [5]: 5.51
pIC50 [6]: > 5.80
pIC50 [4]: > 5.80
Structure (SMILES): NC(=O)N1CCC(CC(=O)N2CCC(=C3c4ncc(Br)cc4CCc4cc(Cl)cc(Br)c43)CC2)CC1 [Example 8B]
inhibition in vivo at 50 mg/kg [1, 9]: 62.5%
inhibition in vivo at 10 mg/kg [1, 10]: 29.2%
pIC50 [3]: < 4.60
pIC50 [2, 8]: 6.55

Structure (SMILES): O=C(Cc1cc[n+]([O-])cc1)N1CCC([C@@H]2c3ncc(Br)cc3CCc3cc(Cl)cc(Br)c32)CC1 [Example 9A]
pIC50 ([2]; Primates, COS, Table 3, COS cells, read-out: Inhibition of Ras Processing IC50): 6.07
pIC50 ([4]; Homo sapiens, 336 h): > 5.80
pIC50 [7]: < 7.06

Structure (SMILES): O=C(Cc1cc[n+]([O-])cc1)N1CCC([C@H]2c3ncc(Br)cc3CCc3cc(Cl)cc(Br)c32)CC1 [Example 9]
inhibition in vivo at 50 mg/kg [1, 9]: 68%
inhibition in vivo at 10 mg/kg [1, 10]: 19%

Structure (SMILES): O=C(Cc1cc[n+]([O-])cc1)N1CCN([C@H]2c3ncc(Br)cc3CCc3cc(Cl)cc(Br)c32)CC1 [Example 11A]
inhibition in vivo at 10 mg/kg ([1]; […]): 44.8%
inhibition in vivo at 50 mg/kg ([1]; […]): 63.8%

Structure (SMILES): O=C(Cc1cc[n+]([O-])cc1)N1CCN([C@@H]2c3ncc(Br)cc3CCc3cc(Cl)cc(Br)c32)CC1 [Example 11B]
inhibition in vivo at 10 mg/kg ([1]; […]): 17%
inhibition in vivo at 50 mg/kg ([1]; […]): 38.8%

Structure (SMILES): O=C(Cc1cc[n+]([O-])cc1)N1CCN(C2c3ncc(Br)cc3CCc3cc(Cl)cc(Br)c32)CC1 (stereo not drawn) [Example 11]
pIC50 ([2]; Primates, COS, read-out: Inhibition of Ras Processing IC50, Table 3, COS cells): > 6.60

pIC50 ([5]; Homo sapiens, SW-620, 336 h): < 5.51
Structure (SMILES): NC(=O)N1CCC(CC(=O)N2CCC(C3c4ccc(Cl)c(Br)c4CCc4cc(Br)cnc43)CC2)CC1 (stereo not drawn) [Example 13B]

Structure (SMILES): O=C(Cc1cc[n+]([O-])cc1)N1CCN([C@H]2c3ccc(Cl)cc3CCc3cc(Br)cnc32)CC1 [Example 16B]
inhibition in vivo at 10 mg/kg ([1]; […]): 50%
inhibition in vivo at 50 mg/kg ([1]; […]): 77%

pIC50 ([5]; Homo sapiens, SW-620, 336 h): 4.60
Structure (SMILES): NC(=O)N1CCC(CC(=O)N2CCN([C@@H]3c4ccc(Cl)cc4CCc4cc(Br)cnc43)CC2)CC1 [Example 17]
